Reference: US11696898B2, “Halogenated ether compounds and methods of inducing anesthesia” (The Regents of the University of California, priority 2014, dated 2023)
Entries after “also recorded” stand apart in the source; their conditions may differ. Where two headings read alike, the source gives them in different places.

Legend:
[1] = test system: NMDA receptors; experiment: NMDA receptor modulation at a saturated aqueous phase concentration; assay type: cell-based
[2] = test system: mice; experiment: General anesthesia in mice (MAC for loss of righting reflex); assay type: in vivo; conditions: inhaled, closed microcircuit
Method: In a method to measure the minimum alveolar concentration (MAC) for Loss Of Righting Reflex (MACLORR), for assessing the performance of a compound as a general anesthetic, mice were placed in a 3.5 cm diameter, 14.5 cm long acrylic cylinder connected on either end via unidirectional valves to a closed microcircuit containing a carbon dioxide absorbent vessel, latex balloon breathing bag, sampling port, and 100 mL glass syringe-driven piston. […] The procedures for measuring MACLORR and MAC, as well as general methods for measuring agent concentrations by gas chromatography, have been described in Deady J E, Koblin D D, Eger E I, 2nd, Heavner J E, D'Aoust B: Anesthetic potencies and the unitary theory of narcosis. Anesth Analg 1981; 60: 380-4; Brosnan R J, Thiesen R: Increased NMDA receptor inhibition at an increased Sevoflurane MAC. BMC Anesthesiol 2012; 12: 9; and Brosnan R J: GABA(A) receptor antagonism increases NMDA receptor inhibition by isoflurane at a minimum alveolar concentration. Vet Anaesth Analg 2011; 38: 231-9, the disclosures of which are incorporated by reference in their entireties.

COC(F)(C(F)(F)F)C(F)(F)F [Propane, 1,1,1,2,3,3,3-heptafluoro-2-methoxy-]
modulation/inhibition of NMDA receptors [1]: inhibits NMDA receptors

FC(OC(F)(F)F)C(F)(F)Br (stereo not drawn) [Ethane, 1-bromo-1,1,2-trifluoro-2-(trifluoromethoxy)-]
modulation/inhibition of NMDA receptors ([1]; listed as 1-bromo-1,1,2-trifluoro-2-(trifluoromethoxy)-ethane): devoid of NMDA receptor effects; also recorded: does not modulate NMDA receptors | general anesthesia in mice [2]: produced general anesthesia
